Results as given in ChEMBL document CHEMBL1201862, “PubChem BioAssay data set” (2004).
Activity calls are given as the source filed them.

How the values were obtained:
[1] = molecular target: Melanocortin receptor 4 (Homo sapiens, UniProt P32245); type: functional, cell-based;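 further: Cell-based assay with luminescence read-out, confirmatory dose-response testing for agonist activity of biased ligands at MC4R; human U2OS cells with tagged receptor and beta-arrestin; potency of agonists that increase receptor coupling to beta-arrestin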
Chain of Melanocortin receptor 4 (P32245 whole entry): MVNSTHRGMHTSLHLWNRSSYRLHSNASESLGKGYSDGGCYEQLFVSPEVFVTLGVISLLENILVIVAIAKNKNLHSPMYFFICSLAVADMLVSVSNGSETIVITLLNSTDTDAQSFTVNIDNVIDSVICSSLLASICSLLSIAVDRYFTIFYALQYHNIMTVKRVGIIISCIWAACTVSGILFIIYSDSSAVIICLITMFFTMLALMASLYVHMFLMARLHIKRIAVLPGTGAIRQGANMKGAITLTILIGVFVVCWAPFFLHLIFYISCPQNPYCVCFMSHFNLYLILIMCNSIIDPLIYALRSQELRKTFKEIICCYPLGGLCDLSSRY

[2] = molecular target: Matrix metalloproteinase-14 (Homo sapiens, UniProt P50281); test: SAR confirmation of uHTS hits for a small molecule inhibitors of MT1-MMP activation in a fluorescence assay.; type: functional
[3] = molecular target: T1, DNA repair protein RAD52 homolog (Homo sapiens, UniProt P43351); type: functional, biochemical
T1 sequence (P43351 whole entry): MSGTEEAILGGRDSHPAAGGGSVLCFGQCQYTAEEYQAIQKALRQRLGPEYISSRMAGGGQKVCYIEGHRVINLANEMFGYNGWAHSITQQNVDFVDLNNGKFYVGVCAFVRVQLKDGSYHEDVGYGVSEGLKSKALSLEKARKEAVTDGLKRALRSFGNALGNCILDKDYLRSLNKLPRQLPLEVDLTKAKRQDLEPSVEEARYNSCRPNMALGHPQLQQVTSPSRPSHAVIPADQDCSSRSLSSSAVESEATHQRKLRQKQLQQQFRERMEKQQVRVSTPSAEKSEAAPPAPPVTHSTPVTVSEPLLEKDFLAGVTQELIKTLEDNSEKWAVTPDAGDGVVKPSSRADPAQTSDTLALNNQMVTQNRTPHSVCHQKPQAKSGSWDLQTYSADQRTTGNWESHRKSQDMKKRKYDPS

[4] = molecular target: DNA repair and recombination protein RAD54-like (Homo sapiens, UniProt Q92698); test: inhibitors of human RAD54 branch migration, confirmation, biochemical, fluorescence, cherry-picked samples, dose series (AID 651657); type: functional
Chain of DNA repair and recombination protein RAD54-like (Q92698 whole entry, the tested form may be a part): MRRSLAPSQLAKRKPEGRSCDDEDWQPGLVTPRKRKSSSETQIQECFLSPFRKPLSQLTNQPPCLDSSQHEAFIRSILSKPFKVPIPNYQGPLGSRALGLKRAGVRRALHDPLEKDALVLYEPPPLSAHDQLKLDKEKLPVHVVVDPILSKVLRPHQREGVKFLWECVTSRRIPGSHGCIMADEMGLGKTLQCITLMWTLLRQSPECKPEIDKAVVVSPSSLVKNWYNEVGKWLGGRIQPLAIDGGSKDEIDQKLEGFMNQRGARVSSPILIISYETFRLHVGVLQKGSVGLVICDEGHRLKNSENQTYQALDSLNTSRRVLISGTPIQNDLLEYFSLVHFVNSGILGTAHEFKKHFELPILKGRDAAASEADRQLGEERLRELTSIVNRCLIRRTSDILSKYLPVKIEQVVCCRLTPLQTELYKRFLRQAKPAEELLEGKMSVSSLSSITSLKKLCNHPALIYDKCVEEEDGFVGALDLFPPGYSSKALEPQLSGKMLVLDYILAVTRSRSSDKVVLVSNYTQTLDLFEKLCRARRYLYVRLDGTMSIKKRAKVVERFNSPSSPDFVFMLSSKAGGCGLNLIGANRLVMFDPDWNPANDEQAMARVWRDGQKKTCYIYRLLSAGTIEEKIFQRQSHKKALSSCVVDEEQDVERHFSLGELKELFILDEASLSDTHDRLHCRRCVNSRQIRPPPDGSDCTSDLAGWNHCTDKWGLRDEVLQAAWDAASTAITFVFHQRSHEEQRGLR

[5] = ZM109 Env clade C HIV-1 fusion inhibitors, dose response, HeLa effector, CEM target cells, luciferase, cherry-pick (AID 652058); type: functional, cell-based
[6] = inhibitors of HIV Env-driven cell fusion, dose response, cherry-pick (AID 652057); type: functional, cell-based
[7] = molecular target: T2, Interleukin-8 (Homo sapiens, UniProt P10145); test: Dose Response confirmation of uHTS small molecule hits for cystic fibrosis induced NFkb Inhibitors in a PAF-induced IL8 counterscreen.; type: functional; settings: read-out: IC50_Mean
T2 sequence (P10145 whole entry): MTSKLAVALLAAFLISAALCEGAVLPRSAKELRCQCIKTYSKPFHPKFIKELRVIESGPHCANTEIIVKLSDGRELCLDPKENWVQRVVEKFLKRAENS

[8] = molecular target: T3, Protein skinhead-1 (Caenorhabditis elegans, UniProt P34707); type: functional
T3 sequence (P34707 whole entry): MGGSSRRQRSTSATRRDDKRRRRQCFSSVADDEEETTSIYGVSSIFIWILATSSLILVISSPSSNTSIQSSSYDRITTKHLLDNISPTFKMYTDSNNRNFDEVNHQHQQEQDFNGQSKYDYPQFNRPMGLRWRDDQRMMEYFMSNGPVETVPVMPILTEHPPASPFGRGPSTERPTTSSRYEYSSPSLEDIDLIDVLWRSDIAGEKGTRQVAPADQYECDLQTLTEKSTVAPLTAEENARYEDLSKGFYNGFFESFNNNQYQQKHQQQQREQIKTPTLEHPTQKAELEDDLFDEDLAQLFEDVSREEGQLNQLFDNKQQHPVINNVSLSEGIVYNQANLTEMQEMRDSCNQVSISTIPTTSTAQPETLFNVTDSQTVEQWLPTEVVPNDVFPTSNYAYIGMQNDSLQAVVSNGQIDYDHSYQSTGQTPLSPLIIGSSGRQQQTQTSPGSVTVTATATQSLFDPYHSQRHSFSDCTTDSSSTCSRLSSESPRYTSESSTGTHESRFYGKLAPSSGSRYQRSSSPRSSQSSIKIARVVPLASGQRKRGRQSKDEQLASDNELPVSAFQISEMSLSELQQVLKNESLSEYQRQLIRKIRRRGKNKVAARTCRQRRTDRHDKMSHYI

[9] = molecular target: T2, Interleukin-8; test: Dose Response confirmation of uHTS small molecule hits for cystic fibrosis induced NFkb Inhibitors in a TNFa-induced IL8 counterscreen.; type: functional; settings: read-out: IC50_Mean
[10] = inhibitors of clade B AD8 Env fusion, dose response, cell-based, cherry-pick (AID 652062); type: functional;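 further: luciferase signal from cell-cell fusion driven by HIV-1 clade B AD8 Env; potency is for inhibitors of fusion seen as a drop in luminescence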
[11] = off-target signal loss in HeLa-CEM21 co-culture – HeLa F-luc CTL cells, cherry-picked, counter-screen for HIV-1 Env fusion inhibitor project, dose response (AID 652040); type: functional, cell-based;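 further: potency for signal decrease marking cytotoxic or nonspecific inhibition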
[12] = molecular target: Palmitoyl-protein thioesterase ABHD10, mitochondrial (Mus musculus, UniProt Q6PE15); test: Late stage assay provider results from the probe development effort to identify inhibitors of PME-1: fluorescence-based dose response biochemical gel-based competitive Activity-Based Protein Profiling (ABPP) inhibition of ABHD10 Set 1.; type: functional
Chain of Palmitoyl-protein thioesterase ABHD10, mitochondrial (Q6PE15 whole entry): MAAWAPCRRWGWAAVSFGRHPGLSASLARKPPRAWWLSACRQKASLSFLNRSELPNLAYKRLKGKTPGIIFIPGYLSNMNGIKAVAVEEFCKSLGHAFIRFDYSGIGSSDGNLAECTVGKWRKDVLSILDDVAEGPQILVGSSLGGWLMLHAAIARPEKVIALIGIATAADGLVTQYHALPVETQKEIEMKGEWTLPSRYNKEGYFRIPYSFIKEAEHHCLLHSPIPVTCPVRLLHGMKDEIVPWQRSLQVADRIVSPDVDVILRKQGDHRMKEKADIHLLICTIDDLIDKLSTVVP

[13] = molecular target: T4, ATP-dependent translocase ABCB1 (Homo sapiens, UniProt P08183); test: ABCB1 efflux inhibitor potency, dose response, Jurkat-DNR cells, JC-1, flow cytometry, set 2 (AID 504569); type: functional; settings: read-out: EC50_MICROM_;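 further: potency of pump inhibitors that raise cellular JC-1 green fluorescence up to the nicardipine level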
T4 sequence (P08183 whole entry): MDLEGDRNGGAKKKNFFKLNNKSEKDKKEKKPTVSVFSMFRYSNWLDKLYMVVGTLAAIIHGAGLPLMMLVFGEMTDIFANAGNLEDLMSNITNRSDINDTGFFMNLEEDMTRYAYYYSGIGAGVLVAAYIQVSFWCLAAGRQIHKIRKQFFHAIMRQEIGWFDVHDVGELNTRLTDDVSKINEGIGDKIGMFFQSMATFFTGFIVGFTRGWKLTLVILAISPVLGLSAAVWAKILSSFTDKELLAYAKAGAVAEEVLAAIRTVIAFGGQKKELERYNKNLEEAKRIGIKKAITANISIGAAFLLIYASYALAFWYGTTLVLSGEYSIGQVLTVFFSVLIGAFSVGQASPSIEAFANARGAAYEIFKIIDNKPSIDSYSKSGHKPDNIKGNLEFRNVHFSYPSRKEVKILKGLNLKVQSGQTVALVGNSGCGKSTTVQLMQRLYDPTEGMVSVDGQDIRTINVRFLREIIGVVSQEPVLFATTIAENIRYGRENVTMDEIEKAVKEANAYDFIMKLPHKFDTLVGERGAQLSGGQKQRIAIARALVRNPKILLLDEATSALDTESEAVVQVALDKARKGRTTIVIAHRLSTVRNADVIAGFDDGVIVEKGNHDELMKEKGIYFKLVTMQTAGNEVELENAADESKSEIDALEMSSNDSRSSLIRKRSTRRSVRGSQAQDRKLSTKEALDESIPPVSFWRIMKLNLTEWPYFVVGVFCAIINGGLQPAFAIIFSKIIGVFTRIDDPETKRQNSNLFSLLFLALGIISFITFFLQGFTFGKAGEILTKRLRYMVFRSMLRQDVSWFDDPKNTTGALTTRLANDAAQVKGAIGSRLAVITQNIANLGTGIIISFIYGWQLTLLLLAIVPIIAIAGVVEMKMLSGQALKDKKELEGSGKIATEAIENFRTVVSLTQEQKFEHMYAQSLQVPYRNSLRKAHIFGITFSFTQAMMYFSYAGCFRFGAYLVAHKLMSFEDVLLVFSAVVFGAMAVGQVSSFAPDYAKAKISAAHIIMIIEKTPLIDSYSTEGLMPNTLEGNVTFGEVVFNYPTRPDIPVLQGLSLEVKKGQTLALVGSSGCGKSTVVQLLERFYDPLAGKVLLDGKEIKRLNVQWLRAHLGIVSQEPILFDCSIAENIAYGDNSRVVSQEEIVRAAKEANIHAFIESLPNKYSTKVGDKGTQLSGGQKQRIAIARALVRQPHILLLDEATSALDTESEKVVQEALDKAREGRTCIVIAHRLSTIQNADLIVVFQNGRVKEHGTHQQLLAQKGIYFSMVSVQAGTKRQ

[14] = molecular target: T4, ATP-dependent translocase ABCB1; test: ABCG2 efflux pump inhibitor potency, dose response, Ig-MXP3 cells, JC-1, flow cytometry, set 2 (AID 504566); type: functional; settings: read-out: EC50_MICROM_;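 further: flow cytometry median green fluorescence of retained JC-1 dye; potency of efflux pump inhibition measured as rising substrate retention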
[15] = inhibitors of TNFa-stimulated NF-kB luciferase reporter, dose response, selectivity assay for EBV LMP1 NF-kB inhibitor project, HEK293 LMP1 reporter cells, dry powder, set 2 (AID 624369); type: functional
[16] = test system: A549; test: A549 cell toxicity, dose response, cytotoxicity control, plate reader, cherry-pick samples (AID 687028); type: functional, cell-based; settings: Homo sapiens
[17] = test system: Vero; test: Vero cell toxicity, dose response, cytotoxicity control, plate reader, cherry-pick samples (AID 687020); type: functional, cell-based; settings: Chlorocebus sabaeus
[18] = cells; type: functional, cell-based; settings: HEK-CNG
[19] = molecular target: Galanin receptor type 3 (Homo sapiens, UniProt O60755); test: Fluorescence-based cell-based primary high throughput dose response assay to identify antagonists of the Galanin Receptor 3 (GalR3).; type: functional
Chain of Galanin receptor type 3 (O60755 whole entry): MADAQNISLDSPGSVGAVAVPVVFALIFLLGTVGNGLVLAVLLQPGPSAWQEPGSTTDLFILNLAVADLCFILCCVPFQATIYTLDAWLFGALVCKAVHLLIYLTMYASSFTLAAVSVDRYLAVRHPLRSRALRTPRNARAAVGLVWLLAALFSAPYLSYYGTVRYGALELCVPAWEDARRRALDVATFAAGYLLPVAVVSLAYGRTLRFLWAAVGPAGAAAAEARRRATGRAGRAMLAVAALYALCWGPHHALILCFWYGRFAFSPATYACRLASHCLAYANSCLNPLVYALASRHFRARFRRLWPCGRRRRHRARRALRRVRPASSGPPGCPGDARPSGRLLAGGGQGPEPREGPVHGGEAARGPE

For `CC(C)CC(N)c1csc(Nc2ccc(C(F)(F)F)cn2)n1` (centres undefined), which EC50 [1] is on record?
The EC50 was > 89.2 µM (inactive).

For `CN1/C(=C/C=C/c2n(C)c3cc([N+](=O)[O-])c([N+](=O)[O-])cc3[n+]2C)C(C)(C)c2ccccc21`, which IC50 [2] is on record?
Its IC50 is 6.88 µM (active).

With `CN(C)CCNC(=O)c1cccc(-c2cnc3c(NC=O)cc(-c4cccc(F)c4)cn23)c1` as the compound, how does the AC50 [3] read?
Its AC50 is 5.99 µM (active).

And the AC50 [4]?
Its AC50 is 22.4 µM (active).

For `CC1(Cc2ccc(Cl)cc2)C(=O)Nc2ccc(-c3cccnc3)cc21` (centres undefined), which AC50 [5] is on record?
The AC50 was 4.18 µM (active).

And the AC50 [6]?
Its AC50 is 1.96 µM (active).

And the IC50 [7]?
The IC50 was 15.6 µM (inactive).

What about the IC50 [8] of the same compound?
Its IC50 is 19.5 µM (active).

What about the IC50 [9] of the same compound?
The IC50 was 41.1 µM (inactive).

What about the AC50 [10] of the same compound?
The AC50 was 3.3 µM (active).

What about the AC50 [11] of the same compound?
The AC50 was 6.69 µM (active).

With `CC[C@@]1(c2ccc(Cl)cc2)C(=O)N(C(=O)OC)N1C(=O)OC` as the compound, how does the IC50 [12] read?
Its IC50 is 0.103 µM (active).

Which results are given for `Cc1ccc(-c2cc3nc(-c4ccccc4)cc(N4CCN(C(=O)c5ccoc5)CC4)n3n2)cc1`?
EC50 [13]: 0.66 µM (active); EC50 [14]: 0.81 µM (active)

For `O=C(C[C@@H]1C[C@H]2c3cc(NC(=O)c4ccc5c(c4)OCO5)ccc3O[C@H]2[C@H](CO)O1)NC1CCCCC1`, which AbsAC35 [15] is on record?
Its AbsAC35 is 166.85 µM.

For `Nc1nc2ccccc2n1Cc1ccc(Cl)c(Cl)c1`, which AC50 [16] is on record?
Its AC50 is 2.82 µM (active).

And the AC50 [17]?
Its AC50 is 1.28 µM (active).

With `CCNCC(O)c1cccc(O)c1` (centres undefined) [ETILEFRINE] as the compound, how does the EC50 [18] read?
Its EC50 is > 30 µM (inactive).

And the IC50 [19]?
The IC50 was 1.33 µM (active).
